Test results taken from patent US8193235B2, “Compositions and methods for establishing and maintaining stem cells in an undifferentiated state” (University of Kansas, priority 2009, dated 2012).

Columns and labels:
Assay type in all cases: cell-based, mouse
[1] = system: Oct4 and Nanog promoter regions; assay: DNA methylation analysis (bisulfite sequencing, MSP); conditions: E14 cells, 5 days on collagen-IV
From the text: DNA Methylation Analysis. One μg of genomic DNA was subjected to bisulfite treatment using CPGENOME Fast DNA Modification Kit (Chemicon Int.). For bisulfite sequencing, the modified DNA was amplified by nested polymerase chain reaction (PCR) using two forward (F) primers and one reverse (R) primer: Oct4 (F1, 5′-GTTGTTTTGTTTTGGTTTTGGATAT-3′, SEQ ID NO:57; F2, 5′-ATGGGTTGAAATATTGGGTTTATTTA-3′, SEQ ID N:58; and R, 5′-CCACCCTCTAACCTTAACCTCTAAC-3′, SEQ ID NO:59) and Nanog (F1, 5′-GAGGATGTTTTTTAAGTTTTTTTT-3′, SEQ ID NO:60; F2, 5′-AATGTTTATGGTGGATTTTGTAGGT-3′, SEQ ID NO:;61; and R, 5′-CCCACACTCATATCAATATAATAAC-3′, SEQ ID NO:62). The resulting PCR product was gel purified, subcloned into pGEM-T vector (Promega) and sequenced using M13R primer. Following primers were used for MSP: Oct4, (F) 5′-GGTTTTAGAAATAATTGGTATACGA-3′ (SEQ ID NO:63), and (R) 5′-CTATTAACACTACACCCTCTCGAC-3′ (SEQ ID NO:64); and Nanog, (F) 5′-ATTTGTGAGTATAAGGATTGATCGG-3′ (SEQ ID NO:65), and (R) 5′-TTTCTTTAAAATAAAATTTCACGTA-3′ (SEQ ID NO:66). PCR products were analyzed on agarose gel.

[2] = system: H3K27me3, EZH2, H3K9Me3, H3K4Me3 at gene loci; assay: Quantitative ChIP assay of chromatin marks
Protocol: Quantitative ChIP Assay. Real-time PCR-based quantitative ChIP analysis was performed according to known methods (Dutta, et al. (2008) supra). Proliferating E14 cells (+LIF), ES cells differentiated on Collagen-IV with or without Gö6983 were either trypsinized or collected by using cell-dissociaton buffer and protein-DNA crosslinking was conducted by treating cells with formaldehyde at a final concentration of 1% for 10 minutes at room temperature with gentle agitation. Glycine (0.125 M) was added to quench the reaction. Antibodies against EZH2, SUZ12, H3K27Me3, H3K9Me3, and H3K4Me3 were used to immunoprecipitate protein-DNA crosslinked fragments. Immunoprecipitated DNA was analyzed by real-time PCR (ABI 7500, Applied Biosystem, Foster City, Calif.). Samples from three or more immunoprecipitates were analyzed using a standard curve from sonicated total chromatin (input) samples.

ES cells = assay: Quantitative Clonal Assay (survival at clonal density); conditions: ≦10 μM
Protocol: Quantitative Clonal Assay. ES and iPS cells were dissociated into single cells using 0.05% trypsin/EDTA and 2-20 cells were plated on each well of a 96-well culture plate. The cells were cultured for 6-7 days, colonies were stained for Nanog, and the number of Nanog positive colonies was counted. […] This procedure was repeated for five consecutive passages (>30 days).

PKCζkd cells = PKCζkd cells cultured on collagen IV without LIF
From the text: ES Cell Differentiation on Collagen-IV and With Retinoic Acid. To differentiate ES cells in monolayer culture on collagen IV, around 3×10^4 cells per well were transferred to collagen IV-coated 6-well plates (BD Biosciences, Franklin Lakes, N.J.) cultured for 5 days in ES differentiation medium containing DMEM (Invitrogen), 15% FBS (selected for endothelial differentiation, Stem Cell Technologies, Vancouver, BC), sodium pyruvate and L-glutamine with or without LIF and Gö6983, and were recovered by cell dissociation buffer (BD Biosciences, Franklin Lakes, N.J.). For culturing multiple passages with Gö6983 on collagen-IV, the recovered cells were again plated at a density of ˜3×10^4 cells per well and cultured again for 5 days. […] For RA-induced differentiation on monolayer culture, ES cells were treated with all-trans-retinoic acid (Sigma, St. Louis, Mo.) in ethanol at a concentration of 1 μM with or without LIF and Gö6983 for 6 days followed by study of expression of pluripotency markers (by immunofluorescence or western blot or RT-PCR analysis).
RNA Interference and Rescue of PKCζ Expression in RKCζkd Cells. Lentiviral vectors containing short hairpin RNAs (shRNAs) targeting mouse PKCζ mRNA were cloned in pLKO1 (Open Biosystems, Huntsville, Ala.). Lentiviral supernatants were produced in HEK-293T cells according to known methods (Dutta, et al. (2008) supra). […]

## COc1ccc2c(c1)c(C1=C(c3c[nH]c4ccccc34)C(=O)NC1=O)cn2CCCN(C)C [Gö6983, 3-[1-[3-(dimethylamino)propyl]5-methoxy-1H-indol-3-yl]-4-(1H-indol-3-yl)-1H-pyrrole-2,5-dione]
[1]
  DNA methylation of promoter regions of Oct4 and Nanog: remained largely unmethylated
[2]
  H3K4 methylation (H3K4Me3) at Oct4 and Nanog loci: high levels of H3K4 methylation
  H3K9 methylation at the Oct4 and Nanog loci: inhibited H3K9 methylation
[2]; mESCs
  H3K27me3 and EZH2 chromatin occupancy at developmental regulator genes: maintained high levels of H3K27me3 and chromatin occupancy
ES cells
  loss in ES cell survival at clonal density: no significant loss
PKCζkd cells; FIG. 2C
  expression of pluripotency markers in PKCζkd cells on collagen IV: maintained the expression of pluripotency markers
PKCζkd cells; without LIF
  differentiation of PKCζkd cells on collagen IV: inhibited differentiation of PKCζkd cells
